From the supplement of paper PMC10307832

How the values were obtained:
Test in all cases: relative viability (nuclei count vs DMSO), 5 days (fraction); higher = more cells survive
AT-7519 = compound: O=C(NC1CCNCC1)c1n[nH]cc1NC(=O)c1c(Cl)cccc1Cl [AT-7519]
Outline: (§1)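 A plate was accepted only when its control CV was below 25% and the cells had doubled at least once. Viability is defined from nuclear counts as treated wells divided by vehicle wells, with the median taken across plates. That median covers lung cancer cell lines grown in 1536-well plates, dosed by pinning at five √10-spaced library-drug concentrations, and counted in MetaXpress from 4× Hoechst images after 5 days.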

[1] = compound: C1=CC2=C(C=C(C(=C2N=C1)O)N=NC3=CC4=C(C=C3)C=C(C=C4)S(=O)(=O)O)S(=O)(=O)O
Outline: as §1

AT-7519 + Pemetrexed = compound: O=C(NC1CCNCC1)c1n[nH]cc1NC(=O)c1c(Cl)cccc1Cl [AT-7519] + Nc1nc2[nH]cc(CCc3ccc(C(=O)N[C@@H](CCC(=O)O)C(=O)O)cc3)c2c(=O)[nH]1 [Pemetrexed] (partner 0.2 µM)
Outline: (§2)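 Lung cancer cell lines were seeded in 1536-well plates and dosed by pin tool the next day, with either a single drug or a fixed anchor-drug dose combined with five library-drug doses (not always all listed) spaced in √10 steps. Five days later, one step fixed the cells and stained their nuclei (final 0.05% Triton X-100, 1% formaldehyde, 1 ug/ml Hoechst), and nuclei were counted on 4× images. Relative viability is the nuclei count in treated wells divided by the count in vehicle wells, and each value is the median of duplicate plates.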

[2] = compound: C1=CC2=C(C=C(C(=C2N=C1)O)N=NC3=CC4=C(C=C3)C=C(C=C4)S(=O)(=O)O)S(=O)(=O)O + COc1cccc2cc(-c3nc([C@H]4CC[C@H](C(=O)O)CC4)n4ncnc(N)c34)[nH]c12 [OSI-027] (partner 0.5 µM)
Outline: as §2

Row | Cell Line | relative viability (AT-7519; 0.01 µM) | relative viability (AT-7519; 0.03162 µM) | relative viability (AT-7519; 0.3162 µM) | relative viability (AT-7519; 1 µM) | relative viability ([1]; 0.08 µM) | relative viability ([1]; 0.253 µM) | relative viability ([1]; 0.8 µM) | relative viability ([1]; 2.53 µM) | relative viability ([1]; 8 µM) | relative viability (AT-7519 + Pemetrexed; first compound 0.01 µM) | relative viability (AT-7519 + Pemetrexed; first compound 0.03162 µM) | relative viability (AT-7519 + Pemetrexed; first compound 0.3162 µM) | relative viability (AT-7519 + Pemetrexed; first compound 1 µM) | relative viability ([2]; first compound 0.08 µM) | relative viability ([2]; first compound 0.253 µM) | relative viability ([2]; first compound 0.8 µM) | relative viability ([2]; first compound 2.53 µM) | relative viability ([2]; first compound 8 µM)
1 | HCC-366 | 1.06 | 1.03 | 0.993 | 0.926 | 1.04 | 0.964 | 0.993 | 0.997 | 0.897 | 0.178 | 0.162 | 0.185 | 0.216 | 0.989 | 0.932 | 0.89 | 0.861 | 0.948
2 | HCC-827 | 1.04 | 1.04 | 1.02 | 0.997 | 1.08 | 0.997 | 1.01 | 1.02 | 1.04 | 0.301 | 0.247 | 0.276 | 0.243 | 0.804 | 0.764 | 0.754 | 0.798 | 0.843
3 | HOP-62 | 0.949 | 0.949 | 1.04 | 1.04 | 1.06 | 0.931 | 0.964 | 1.03 | 1.04 | 0.359 | 0.335 | 0.302 | 0.328 | 0.843 | 0.817 | 0.67 | 0.807 | 0.836
4 | IA-LM | 0.912 | 0.874 | 0.856 | 0.854 | 1.02 | 0.954 | 0.785 | 0.896 | 0.934 |  |  |  |  |  |  |  |  | 
5 | LC-2-ad | 0.996 | 0.99 | 1.01 | 0.909 | 1.02 | 0.902 | 0.978 | 0.995 | 0.945 | 0.263 | 0.276 | 0.28 | 0.268 | 0.936 | 0.855 | 0.626 | 0.906 | 0.723
6 | LCLC-97TM1 | 0.918 | 0.892 | 0.844 | 0.47 | 1.16 | 0.873 | 0.833 | 0.926 | 0.999 | 0.182 | 0.156 | 0.152 | 0.165 | 0.535 | 0.432 | 0.496 | 0.474 | 0.515
7 | LCLC-103H | 1.08 | 0.983 | 1.01 | 1.07 | 1.02 | 0.998 | 0.976 | 1.02 | 1.03 | 0.461 | 0.476 | 0.437 | 0.401 | 0.475 | 0.485 | 0.444 | 0.463 | 0.517
8 | LK-2 | 0.961 | 0.934 | 0.857 | 0.682 | 1.05 | 0.973 | 0.876 | 0.911 | 0.797 | 0.305 | 0.259 | 0.212 | 0.201 | 0.21 | 0.202 | 0.189 | 0.211 | 0.202
9 | LOU-NH91 | 0.93 | 0.963 | 0.956 | 0.933 | 0.964 | 0.978 | 0.99 | 0.989 | 0.948 | 0.306 | 0.359 | 0.385 | 0.506 | 0.736 | 0.751 | 0.713 | 0.668 | 0.733
10 | LU99A | 1.02 | 0.857 | 0.826 | 0.974 | 1.02 | 0.936 | 0.901 | 0.95 | 0.948 | 0.215 | 0.199 | 0.165 | 0.198 | 0.311 | 0.301 | 0.35 | 0.292 | 0.296
11 | LXF-289 | 1 | 0.938 | 1.01 | 1.02 | 1.09 | 0.958 | 1.01 | 1.04 | 0.955 | 0.866 | 0.905 | 0.909 | 0.992 | 0.84 | 0.733 | 0.745 | 0.809 | 0.788
12 | NCI-H23 | 0.856 | 0.858 | 0.912 | 0.616 | 0.912 | 0.873 | 0.932 | 1.04 | 0.9 | 0.563 | 0.734 | 0.591 | 0.494 | 0.619 | 0.585 | 0.637 | 0.654 | 0.603
13 | NCI-H322M | 0.913 | 0.947 | 0.773 | 0.798 | 1.07 | 0.93 | 0.901 | 0.877 | 0.951 | 0.563 | 0.623 | 0.469 | 0.543 | 0.651 | 0.501 | 0.513 | 0.586 | 0.509
14 | NCI-H358 | 0.889 | 0.86 | 0.85 | 0.31 | 1.08 | 0.978 | 0.841 | 0.943 | 1.01 | 0.175 | 0.172 | 0.164 | 0.132 | 0.94 | 0.738 | 0.746 | 0.772 | 0.847
15 | NCI-H441 | 1.03 | 1.02 | 1.05 | 0.523 | 1.16 | 0.942 | 0.898 | 1.06 | 0.947 | 0.283 | 0.266 | 0.263 | 0.198 | 0.504 | 0.638 | 0.461 | 0.66 | 0.588
16 | NCI-H727 | 0.954 | 0.802 | 0.849 | 0.447 | 1.15 | 0.921 | 0.923 | 0.958 | 0.941 |  |  |  |  | 0.623 | 0.549 | 0.54 | 0.592 | 0.578
17 | NCI-H1299 | 1.05 | 1.02 | 1.02 | 1.18 | 1.02 | 1.01 | 1 | 1.04 | 1 |  |  |  |  |  |  |  |  | 
18 | NCI-H1623 | 0.982 | 0.934 | 1.05 | 0.773 | 0.925 | 0.995 | 0.953 | 1.06 | 0.852 |  |  |  |  | 0.466 | 0.391 | 0.419 | 0.468 | 0.438
19 | NCI-H1703 | 0.865 | 0.845 | 0.866 | 0.261 | 0.942 | 0.772 | 0.99 | 0.884 | 1.04 |  |  |  |  |  |  |  |  | 
